Test results from EP2253266A1, “Method for treating patients with cerebral calcifications” (Assistance Publique - Hôpitaux de Paris, priority 2009, dated 2010).

Key:
[1] = quoted from WO 2006/119589; cited from earlier work
[2] = quoted from WO 2006/119589; cited from earlier work; remark: listed apart in the source
[3] = test system: patients having diffuse cerebral calcifications; assay: Clinical response to treatment of patients with cerebral calcifications and cerebral folate deficiency (global disability score, subjective evaluations, neurological examination, serial videos); assay type: in vivo, humans; parameters: key to Global score after treatment: 1: Autonomous for all activities of daily living; 2: can walk at least 100 meters alone, needs help for few activities of daily living; 3: can walk unaided about 10 meters, needs help for many activities of daily living; 4: can not walk alone, needs aid for most activities of daily living; settings: for Global score after treatment: global score before treatment 3
Text: Three patients having diffuse cerebral calcifications involving the basal ganglia, cerebellar dentate nuclei, white matter and in one patient the occipital cortex (Table 3) were studied. These neuroradiological findings were indistinguishable from Fahr's Syndrome (IBGC MIM # 114100, # 213600). […] Autonomous for all activities of daily living • 2: can walk at least 100 meters alone, needs help for few activities of daily living • 3: can walk unaided about 10 meters, needs help for many activities of daily living • 4: can not walk alone, needs aid for most activities of daily living. The clinical response to treatment was judged based on the patient's, patient's family, nurses and neurologist subjective evaluations, neurological examination and serial videos. A global disability score was designed to evaluate clinical severity and evolution (see table 3 legend). Table 4: Effect of treatments

Row | Structure (SMILES) | bio-availability [1] | toxicity studies [2] | Global score after treatment ([3]; patient #1, MTHF 2 mg/kg/d, treatment duration 2 years ½) | Global score after treatment ([3]; patient #2, MTHF 2 mg/kg/d, treatment duration 14 months) | Global score after treatment ([3]; patient #3, MTHF 1.5 mg/kg/d, treatment duration 1 year) | other treatments leading to less or only transient improvement ([3]; patient #1, IVIg 0.4gr/kgX5d every 6weeks) | other treatments leading to less or only transient improvement ([3]; patient #3, Calcium folinate 75 mg/d)
1 | CN1c2c(nc(N)[nH]c2=O)NCC1CNc1ccc(C(=O)NC(CCC(=O)O)C(=O)O)cc1 (stereo not shown) [MTHF, 5-methyltetrahydrofolate] | high bio-availability | no adverse effects | 2 | 3 | 2 |  | 
2 | Nc1nc2c(c(=O)[nH]1)N(C=O)C(CNc1ccc(C(=O)N[C@@H](CCC(=O)O)C(=O)O)cc1)CN2 (stereo partly shown) [Calcium folinate, 5-formyltetrahydrofolic acid] |  |  |  |  |  | Calcium folinate led to marked initial impro-vement that waned after 6 months. IVIg (0.4gr/kgX5d every 6weeks) led to improvement of walking during 4 months | Calcium folinate 75 mg/d: same effect than MTHF
